Experimental data: patent US5574043A, “Certain [1,2,5-thiadiazol-4-yl]-1-azabicyclo [3.2.1]octane derivatives and their pharmaceutical uses” (Novo Nordisk A/S, priority 1995, dated 1996)
Structures can show the parent of a compound that is named as a salt.

What follows are compounds tested against muscarinic acetylcholine receptors (assay: Inhibition of specific binding of 3H-Oxotremorine-M (OXO BINDING) in vitro, rat cortex). Settings: rat cortex homogenate, 3H-Oxotremorine 1.0 nM, 30 min at 25° C., pH 7.4.
Set-up: species or system male Wistar rats
Excerpt: The pharmacological properties of the compounds of the invention can be illustrated by determining their capability to inhibit the specific binding of ^3 H-Oxotremorine-M (^3 H-Oxo). Birdsdall N. J. M., Hulme E. C., and Burgen A. S. V. (1980). "The Character of Muscarinic Receptors in Different Regions of the Rat Brain". Proc. Roy. Soc. London (Series B) 207,1.
^3 H-Oxo labels muscarinic receptor in the CNS (with a preference for agonist domains of the receptors). Three different sites are labelled by ^3 H-Oxo. […] Using the present experimental conditions only the high and medium affinity sites are determined.
The inhibitory effects of compounds on ^3 H-Oxo binding reflects the affinity for muscarinic acetylcholine receptors.
All preparations are performed at 0°-4° C. unless otherwise indicated. Fresh cortex (0.1-1 g) from male Wistar rats (150-250 g) is homogenized for 5-10 s in 10 ml 20 mM Hepes pH: 7.4, with an Ultra-Turrax homogenizer. The homogenizer, is rinsed with 10 ml of buffer and the combined suspension centrifuged for 15 min at 40,000×g. The pellet is washed three times with buffer. In each step the pellet is homogenized as before in 2×10 ml of buffer and centrifuged for 10 min at 40,000×g.
The final pellet is homogenized in 20 mM Hepes pH: 7.4 (100 ml per g of original tissue) and used for binding assay. Aliquots of 0.5 ml is added 25 μl of test solution and 25 μl of ^3 H-Oxotremorine (1.0 nM, final concentration) mixed and incubated for 30 min at 25° C. Non-specific binding is determined in triplicate using arecoline (1 μg/ml, final concentration) as the test substance. After incubation samples are added 5 ml of ice-cold buffer and poured directly onto Whatman GF/C glass fibre filters under suction and immediately washed 2 times with 5 ml of ice-cold buffer. The amount of radioactivity on the filters are determined by conventional liquid scintillation counting. Specific binding is total binding minus non specific binding.
Test substances are dissolved in 10 ml water (if necessary heated on a steam bath for less than 5 minutes) at a concentration of 2.2 mg/ml.
The test value will be given as IC50 (the concentration (ng/ml) of the test substance which inhibits the specific binding of ^3 H-Oxo by 50%).
IC50 =(applied test substance concentration) [formula] where Co is specific binding in control assays and Cx is the specific binding in the test assay. (The calculations assume normal mass-action kinetics).

In order of falling “Inhibition in vitro OXO BINDING IC50” value:
1. Clc1nsnc1C1(Cl)CN2CCC1CC2.O=C(O)C(=O)O (centres unmarked) [Compound 1, 3-Chloro-3-(3-chloro-1,2,5-thiadiazol-4-yl)-1-azabicyclo[2.2.2]-octane oxalate]  156 ng/mL
2. CCCCCCOc1nsnc1C1(O)CN2CCC1CC2.O=C(O)C(=O)O (centres unmarked) [Compound 7, 3-(3-Hexyloxy-1,2,5-thiadiazol-4-yl)-3-hydroxy-1-azabicyclo[2.2.2]octane oxalate]  13 ng/mL
3. CC(C)CCCSc1nsnc1[C@H]1CN2CCC[C@@H]1C2 (relative stereo) [Compound 87, Endo-6-(3-isohexylthio-1,2,5-thiadiazol-4-yl)-1-azabicyclo[3.2.1]octane oxalate]  10 ng/mL
4. COc1nsnc1C1=C(Cl)C2CCCN(C1)C2.O=C(O)C(=O)O (centres unmarked) [Compound 64, 4-Chloro-3-(3-methoxy-1,2,5-thiadiazol-4-yl)-1-azabicyclo[3.3.1]non-3-ene oxalate]  8.2 ng/mL
5. CCCCCOc1nsnc1C1=C(Cl)C2CCCN(C1)C2 (centres unmarked) [Compound 63, 4-Chloro-3-(3-pentyloxy-1,2,5-thiadiazol-4-yl)-1-azabicyclo[3.3.1]non-3-eneoxalate]  8.2 ng/mL
6. CCCCCCSc1nsnc1[C@@H]1CN2CC[C@H]1C2 (relative stereo) [Compound 34, Endo-3-(3-hexylthio-1,2,5-thiadiazol-4-yl)-1-azabicyclo[2.2.1]heptane fumarate]  7.9 ng/mL
7. CSc1nsnc1[C@@H]1CN2CCC[C@H]1C2 (relative stereo) [Compound 85, Endo-6-(3-methylthio-1,2,5-thiadiazol-4-yl)-1-azabicyclo[3.2.1]octane oxalate]  7.2 ng/mL
8. CCCCCCSc1nsnc1C1CN2CCC1CC2.O=C(O)/C=C/C(=O)O (centres unmarked) [Compound 14, 3-(3-Hexylthio-1,2,5-thiadiazol-4-yl)-1-azabicyclo[2.2.2]octane fumarate]  4.8 ng/mL
9. CCc1ccc(COc2nsnc2C2CN3CCC2CC3)cc1.O=C(O)C(=O)O (centres unmarked) [Compound 109, 3-(3-(4-Ethylbenzyloxy)-1,2,5-thiadiazol-4-yl)-1-azabicyclo[2.2.2]octane oxalate]  4.0 ng/mL
10. CCCCCCSc1nsnc1[C@H]1CN2CCC[C@@H]1C2 (relative stereo) [Compound 17, Endo-6-(3-hexylthio-1,2,5-thiadiazol-4-yl)-1-azabicyclo[3.2.1]octane oxalate]  3.2 ng/mL
11. CC(C)CCCSc1nsnc1[C@H]1CN2CCC[C@H]1C2 (relative stereo) [Compound 76, Exo-6-(3-isohexylthio-1,2,5-thiadiazol-4-yl)-1-azabicyclo[3.2.1]octane oxalate]  2.6 ng/mL
12. CCCSc1nsnc1[C@@H]1CN2CC[C@H]1C2 (relative stereo) [Compound 37, Endo:3-(3-propylthio-1,2,5-thiadiazol-4-yl)-1-azabicyclo[2.2.1]heptane oxalate]  2.0 ng/mL
13. COc1nsnc1[C@@H]1CN2CCC[C@@H]1C2 (relative stereo) [Compound 117, Exo-6-(3-methoxy-1,2,5-thiadiazol-4-yl)-1-azabicyclo[3.2.1]octane oxalate]  2.0 ng/mL
14. CCCOc1nsnc1C1CN2CCC1CC2.O=C(O)/C=C/C(=O)O (centres unmarked) [Compound 10, 3-(3-Propoxy-1,2,5-thiadiazol-4-yl)-1-azabicyclo[2.2.2]octane fumarate]  1.7 ng/mL
15. O=C(O)/C=C/C(=O)O.c1ccc(OCCSc2nsnc2C2CN3CCC2CC3)cc1 (centres unmarked) [Compound 102, 3-(3-(2-Phenoxyethylthio)-1,2,5-thiadiazol-4-yl)-1-azabicyclo[2.2.2]octane fumarate]  1.52 ng/mL
16. FC(F)(F)C(F)(F)C(F)(F)COc1nsnc1[C@@H]1CN2CCC[C@@H]1C2 (relative stereo) [Compound 116, Exo-6-(3-(2,2,3,3,4,4,4-heptafluorobutyloxy)-1,2,5-thiadiazol-4-yl)-1-azabicyclo[3.2.1]octane oxalate]  1.4 ng/mL
17. CCCCCCOc1nsnc1C1CN2CCC1CC2.O=C(O)/C=C/C(=O)O (centres unmarked) [Compound 11, 3-(3-Hexyloxy-1,2,5-thiadiazol-4-yl)-1-azabicyclo[2.2.2]octane fumarate]  1.2 ng/mL
18. N#CCSc1nsnc1C1CN2CCC1CC2.O=C(O)C(=O)O (centres unmarked) [Compound 103, 3-(3-Cyanomethylthio-1,2,5-thiadiazol-4-yl)-1-azabicyclo[2.2.2]octane oxalate]  0.92 ng/mL
19. Cn1nnnc1SCCCCSc1nsnc1C1CN2CCC1CC2 (centres unmarked) [Compound 106, oxalate]  0.9 ng/mL
20. CC(C)CCOc1nsnc1C1CN2CCC1CC2.O=C(O)C(=O)O (centres unmarked) [Compound 51, 3-(3-Isopentyloxy-1,2,5-thiadiazol-4-yl)-1-azabicyclo[2.2.2]octane oxalate]  0.89 ng/mL
21. c1csc(CCCSc2nsnc2C2CN3CCC2CC3)c1 (centres unmarked) [Compound 104, 3-(3-(3-(2-Thienyl)propylthio)-1,2,5-thiadiazol-4-yl)-1-azabicyclo[2.2.2]fumarate]  0.85 ng/mL
22. FC(F)(F)CCCSc1nsnc1[C@@H]1CN2CCC[C@@H]1C2 (single isomer, unassigned) [Compound 130, (+)-Exo-6-(3-(4,4,4-trifluoro-1-butylthio)-1,2,5-thiadiazol-4-yl)-1-azabicyclo[3.2.1]octane oxalate]  0.60 ng/mL
23. CCCCSc1nsnc1[C@H]1CN2CCC[C@@H]1C2 (relative stereo) [Compound 24, Endo-6-(3-butylthio-1,2,5-thiadiazol-4-yl)-1-azabicyclo[3.2.1]octane oxalate]  0.52 ng/mL
24. CCCCCCSc1nsnc1[C@H]1CN2CC[C@H]1C2 (relative stereo) [Compound 39, Exo-3-(3-hexylthio-1,2,5-thiadiazol-4-yl)-1-azabicyclo[2.2.1]heptane oxalate]  0.52 ng/mL
25. CCCCCSc1nsnc1C1CN2CCC1CC2.O=C(O)/C=C/C(=O)O (centres unmarked) [Compound 12, 3-(3-Pentylthio-1,2,5-thiadiazol-4-yl)-1-azabicyclo[2.2.2]octane fumarate]  0.45 ng/mL
26. c1ccc(CCCSc2nsnc2[C@H]2CN3CCC[C@H]2C3)cc1 (relative stereo) [Compound 83, Exo-6-(3-(3-phenylpropylthio)-1,2,5-thiadiazol-4-yl)-1-azabicyclo[3.2.1]octane oxalate]  0.43 ng/mL
27. C=CCCCCOc1nsnc1C1CN2CCC1CC2.O=C(O)/C=C/C(=O)O (centres unmarked) [Compound 48, 3-(3-(5-Hexenyloxy)-1,2,5-thiadiazol-4-yl)-1-azabicyclo[2.2.2]octane fumarate]  0.43 ng/mL
28. N#CCCCSc1nsnc1[C@H]1CN2CCC[C@H]1C2 (relative stereo) [Compound 81, Exo-6-(3-(3-cyanopropyithio)-1,2,5-thiadiazol-4-yl)-1-azabicyclo[3.2.1]octane oxalate]  0.40 ng/mL
29. N#Cc1ccc(CSc2nsnc2[C@H]2CN3CCC[C@H]2C3)cc1 (relative stereo) [Compound 82, Exo-6-(3-(4-cyanobenzylthio)-1,2,5-thiadiazol-4-yl)-1-azabicyclo[3.2.1]octane oxalate]  0.40 ng/mL
30. CCCCCCSc1nsnc1[C@H]1CN2CCC[C@H]1C2 (relative stereo) [Compound 29, Exo-6-(3-hexylthio-1,2,5-thiadiazol-4-yl)-1-azabicyclo[3.2.1]octane oxalate]  0.39 ng/mL
31. CCCCSc1nsnc1[C@@H]1CN2CCC[C@@H]1C2 (single isomer, unassigned) [Compound 111, (+)-Exo-6-(3-butylthio-1,2,5-thiadiazol-4-yl)-1-azabicyclo[3.2.1]octane (+) L-tartrate]  0.32 ng/mL
32. Cc1nnc(SCCCCSc2nsnc2C2CN3CCC2CC3)s1 (centres unmarked) [Compound 107, oxalate]  0.3 ng/mL
